Consider 69 compounds from patent US20170273985A1, “TRICYCLIC DERIVATIVE” (Sunovion Pharmaceuticals Inc., priority 2014, published 2017).

One may read the IC50 as the concentration that inhibits the measured activity by half. A high value points to weaker potency in that assay.

The first experiment has as its target PDE1B (Homo sapiens, UniProt Q01064). The experiment is described as follows: In vitro HTRF PDE1 inhibition assay (PDE1B). In kind it is biochemical. Conditions: Table 22. An excerpt: An exemplary procedure for the in vitro Homogenous Time Resolved Fluorescence assay, which can be used to determine the inhibitory action of compounds of the invention toward PDE1 or its isoforms, follows. The HTRF PDE1 assay utilized the HTRF (Homogenous Time Resolved Fluorescence) technology, which is based on the competition between unlabeled cyclic nucleotide and cyclic nucleotide labeled with XL665 for the binding to cyclic nucleotide-specific antibody labeled with cryptate. The HTRF signal is thus inversely proportional to the concentration of cyclic nucleotide being measured. Since phosphodiesterases break down cyclic nucleotides the HTRF signal was used to determine PDE activity. The Cisbio cGMP HTRF assay kit (Cat no: 62GM2PEC) was utilized. Cyclic GMP was diluted to 200 nM in HTRF assay buffer (1 mM CaCl2, 10 mM MgCl2, 10 mM Tris-HCl, 0.1% BSA, pH 7.4). 10 μl of compound or DMSO was diluted in 200 nM cyclic GMP solution and added to wells of a 96 well white plate to give 100 nM cyclic GMP in 1% DMSO final concentration. PDE (1A3, 1B or IC) was diluted to 2× working concentration in HTRF assay buffer with 2 μg/ml calmodulin, and 10 μl was added to initiate the reaction. The plate was then incubated for 45 minutes at 37° C. d2-Labelled cyclic GMP and anti-cGMP cryptate were diluted in 50 mM phosphate buffer, 0.8 M KF, 1% Triton X100, 0.2% BSA, pH 7.0. Following incubation 10 μl d2-cGMP, then 10 μl anti cGMP cryptate were added to each well and the plate was incubated for 45 minutes at room temperature. The plate was then read on Perkin Elmer Victor at 2 different FRET readings ex/emm 340 nm/665 nm and 340 nm/615 nm. Compounds having an IC50 of <1 μM, are denoted as +++. Compounds having an IC50 of 1−10 μM, are denoted as ++. Compounds having an IC50 of 10-100 μM, are denoted as +.
Compound `COc1cccc(C2CCn3c(nn4c(C(C)C)ncc4c3=O)O2)c1` (stereo not drawn) [Example 128] displayed an IC50 of 1000 to 10000 nM.
On the same count and under the same terms, to `COc1ccc(C2CCn3c(nn4c(C(C)C)ncc4c3=O)O2)cc1` (stereo not drawn) [Example 129] belongs below 1000 nM; to `CC(C)c1ncc2c(=O)n3c(nn12)OC(Cc1ccccc1)CC3` (stereo not drawn) [Example 130], below 1000 nM; to `COc1ccc(CC2CCn3c(nn4c(C(C)C)ncc4c3=O)O2)cc1` (stereo not drawn) [Example 131], below 1000 nM.
The same measure, in the same setting: under `CC(C)c1ncc2c(=O)n3c(nn12)OC(Cc1ccc(Cl)cc1)CC3` (stereo not drawn) [Example 132] stands below 1000 nM.
Still for that read-out and setting: under `O=c1c2cnc(C3CCCC3)n2nc2n1CCC(c1ccccc1)C2` (stereo not drawn) [Example 134, 3-Cyclopentyl-7-phenyl-8,9-dihydro-6H-imidazo[5,1-f]pyrido[2,1-c][1,2,4]triazin-11(7H)-one] stands 1000 to 10000 nM; under `COc1cccc(C2CCn3c(nn4c(C5CCCC5)ncc4c3=O)C2)c1` (stereo not drawn) [Example 135], 1000 to 10000 nM; under `COc1ccc(C2CCn3c(nn4c(C5CCCC5)ncc4c3=O)C2)cc1` (stereo not drawn) [Example 136], 1000 to 10000 nM.
In turn, `O=c1c2cnc(C3CCOCC3)n2nc2n1CC(c1ccc(Cl)cc1)C2` (stereo not drawn) [Example 138, 7-(4-Chlorophenyl)-3-(tetrahydro-2H-pyran-4-yl)-7,8-dihydro-6H,10H-imidazo[5,1-f]pyrrolo[2,1-c][1,2,4]triazin-10-one] returned an IC50 of 1000 to 10000 nM.

Still in this experiment, the particulars now being: Table 25.
Compound `COCCN1CCn2c1nn1c(C(C)C)ncc1c2=O` [Example 139] registered an IC50 below 1000 nM.
For `CC(C)c1ncc2c(=O)n3c(nn12)N(CCc1cccnc1)CC3` [Example 140], the 50% inhibitory concentration (IC50) is below 1000 nM.
The compound `CC(C)c1ncc2c(=O)n3c(nn12)N(Cc1ccc(Cl)cn1)CC3` [Example 141] came in with an IC50 below 1000 nM.
Compound `O=c1c2cnc(C3CCC3)n2nc2n1CCN2CCCc1ccccn1` [Example 142] showed an IC50 below 1000 nM.
The same measure, in the same setting: under `O=c1c2cnc(C3CCC3)n2nc2n1CCN2CC1CCOCC1` [Example 143] stands below 1000 nM; under `O=c1c2cnc(C3CCC3)n2nc2n1CCN2Cc1ccc(Cl)cn1` [Example 144], below 1000 nM; under `COC(C)c1ncc2c(=O)n3c(nn12)N(CCC(C)(C)C)CC3` (stereo not drawn) [Example 145], below 1000 nM.
`O=c1c2cnc(C3CCOCC3)n2nc2n1CCN2CCOC(F)(F)F` [Example 146] had an IC50 below 1000 nM.
As for `O=c1c2cnc(C3CCOCC3)n2nc2n1CCN2CCc1cccc(F)c1` [Example 147], the IC50 was below 1000 nM.
`O=c1c2cnc(C3CCOCC3)n2nc2n1CCN2CCC1CC1` [Example 149]: the half-maximal inhibitory concentration (IC50) was below 1000 nM.
`COc1ccccc1CN1CCn2c1nn1c(C3CCOCC3)ncc1c2=O` [Example 150] came in with an IC50 below 1000 nM.
`O=c1c2cnc(C3CCOCC3)n2nc2n1CCN2CC1CCC1` [Example 151] yielded an IC50 below 1000 nM.
`O=c1c2cnc(C3CCOCC3)n2nc2n1CCN2CC1CCCC1` [Example 152] yielded an IC50 below 1000 nM.
Consider `COc1ccc(CN2CCn3c2nn2c(C4CCOCC4)ncc2c3=O)cc1` [Example 157], for which the IC50 is below 1000 nM.
In turn, `COc1cccc(CN2CCn3c2nn2c(C4CCOCC4)ncc2c3=O)c1` [Example 158] returned an IC50 below 1000 nM.
On the same count and under the same terms, under `O=c1c2cnc(C3CCOCC3)n2nc2n1CCN2Cc1ccc(-c2ccccn2)cc1` [Example 161] stands below 1000 nM; under `CC(C)CN1CCn2c1nn1c(C3CCOCC3)ncc1c2=O` [Example 174], below 1000 nM; under `CC(C)(C)CN1CCn2c1nn1c(C3CCOCC3)ncc1c2=O` [Example 175], below 1000 nM.
Still for that read-out and setting: under `CC(C)c1ncc2c(=O)n3c(nn12)N(Cc1ccc(Cl)cn1)CCC3` [Example 177] stands below 1000 nM; under `O=c1c2cnc(C3CCC3)n2nc2n1CCCN2CC1CCOCC1` [Example 178], below 1000 nM.
The same measure, in the same setting: under `O=c1c2cnc(C3CCC3)n2nc2n1CCCN2Cc1ccc(Cl)cn1` [Example 179] stands below 1000 nM; under `COC(C)c1ncc2c(=O)n3c(nn12)N(CCC(C)(C)C)CCC3` (stereo not drawn) [Example 180], below 1000 nM.
Compound `COC(C)c1ncc2c(=O)n3c(nn12)N(CCCC(F)(F)F)CCC3` (stereo not drawn) [Example 181] displayed an IC50 of 1000 to 10000 nM.
The same measure, in the same setting: under `O=c1c2cnc(C3CCOCC3)n2nc2n1CCCN2CCCC(F)(F)F` [Example 182] stands below 1000 nM; under `CC(C)CN1CCCn2c1nn1c(C3CCOCC3)ncc1c2=O` [Example 183], below 1000 nM; under `CC(C)(C)CN1CCCn2c1nn1c(C3CCOCC3)ncc1c2=O` [Example 184], below 1000 nM.
The compound `CC(C)CCN1CCCn2c1nn1c(C3CCOCC3)ncc1c2=O` [Example 185] had an IC50 below 1000 nM.
On to `CC(C)(C)CCN1CCCn2c1nn1c(C3CCOCC3)ncc1c2=O` [Example 186], for which the IC50 was below 1000 nM.
`O=c1c2cnc(C3CCOCC3)n2nc2n1CCCN2C[C@H]1CC[C@H](C(F)(F)F)CC1` [Example 192] yielded a half-inhibitory concentration (IC50) below 1000 nM.
Take `CO[C@H]1CC[C@@H](CN2CCCn3c2nn2c(C4CCOCC4)ncc2c3=O)CC1` [Example 194]: the IC50 is below 1000 nM.
`O=c1c2cnc(C3CCOCC3)n2nc2n1CCCN2C[C@H]1CC[C@@H](C(F)(F)F)CC1` [Example 195] showed an IC50 below 1000 nM.
For `CCO[C@H]1CC[C@@H](CN2CCCn3c2nn2c(C4CCOCC4)ncc2c3=O)CC1` [Example 196], the IC50 is below 1000 nM.
`O=c1c2cnc(C3CCOCC3)n2nc2n1CCCN2CC1CC1(F)F` (stereo not drawn) [Example 197] had an IC50 below 1000 nM.
`CC1CN(CCCC(F)(F)F)c2nn3c(C4CCOCC4)ncc3c(=O)n2C1` (stereo not drawn) [Example 198] gave a 50% inhibitory concentration (IC50) below 1000 nM.
In turn, `CC(C)c1ncc2c(=O)n3c(nn12)N(CC1CCOCC1)CC(C)(C)C3` [Example 199] registered an IC50 below 1000 nM.
Still for that read-out and setting: to `CC(C)c1ncc2c(=O)n3c(nn12)N(CC1CCOCC1)CC(F)(F)C3` [Example 201] belongs below 1000 nM; to `CC(C)CN1CC(F)(F)Cn2c1nn1c(C3CCOCC3)ncc1c2=O` [Example 202], below 1000 nM.
In turn, `CC(C)CCN1CC(F)(F)Cn2c1nn1c(C3CCOCC3)ncc1c2=O` [Example 203] registered a concentration for half-maximal inhibition (IC50) below 1000 nM.
`CC(C)n1ncc2c(=O)n3c(nc21)N(Cc1ccc(C2CCOCC2)cc1)CC3` [Example 204] had an IC50 below 1000 nM.
`CC(C)n1ncc2c(=O)n3c(nc21)N(Cc1ccc(-c2ccc(F)cn2)cc1)CC3` [Example 205] showed an IC50 below 1000 nM.
Consider `CC(C)n1ncc2c(=O)n3c(nc21)N(CC1CCC(F)(F)CC1)CC3` [Example 206], for which the 50% inhibitory concentration (IC50) is below 1000 nM.
Compound `O=c1c2cnn(C3CCOCC3)c2nc2n1CCN2Cc1ccc(-c2ccccn2)cc1` [Example 207] gave a half-inhibitory concentration (IC50) below 1000 nM.
Same read-out and setting: to `O=c1c2cnn(C3CCOCC3)c2nc2n1CCN2Cc1ccc(-c2ccc(F)cn2)cc1` [Example 208] belongs below 1000 nM; to `O=c1c2cnn(C3CCOCC3)c2nc2n1CCN2Cc1ccc(C(F)(F)F)cc1` [Example 209], below 1000 nM.
`O=c1c2cnn(C3CCOCC3)c2nc2n1CCN2CC1CCC(F)(F)CC1` [Example 210]: the IC50 was below 1000 nM.
Same read-out and setting: to `CC(C)(C)CCN1CCn2c1nc1c(cnn1C1CCOCC1)c2=O` [Example 211] belongs below 1000 nM.
`O=c1c2cnn(C3CCOCC3)c2nc2n1CCN2CCCC(F)(F)F` [Example 212] gave an IC50 below 1000 nM.
`CC(C)CCN1CCn2c1nc1c(cnn1C1CCOCC1)c2=O` [Example 213] gave an IC50 below 1000 nM.
On to `CC(C)n1ncc2c(=O)n3c(nc21)N(Cc1ccc(Cl)cn1)CCC3` [Example 214], for which the concentration for half-maximal inhibition (IC50) is below 1000 nM.
Take `CC(C)n1ncc2c(=O)n3c(nc21)N(Cc1ccc(-c2ccccn2)cc1)CCC3` [Example 215]: the IC50 is below 1000 nM.
Take `CC(C)n1ncc2c(=O)n3c(nc21)N(Cc1ccc(C2CCOCC2)cc1)CCC3` [Example 216]: the IC50 was below 1000 nM.
Compound `O=c1c2cnn(C3CCOCC3)c2nc2n1CCCN2Cc1ccc(Cl)cn1` [Example 217] returned an IC50 below 1000 nM.
As for `O=c1c2cnn(C3CCOCC3)c2nc2n1CCCN2Cc1ccc(C(F)(F)F)cc1` [Example 218], the IC50 is below 1000 nM.
The compound `O=c1c2cnn(C3CCOCC3)c2nc2n1CCCN2Cc1ccc(F)cc1` [Example 219] displayed an IC50 below 1000 nM.
In turn, `O=c1c2cnn(C3CCOCC3)c2nc2n1CCCN2Cc1ccc(-c2ccccn2)cc1` [Example 220] had an IC50 below 1000 nM.
On to `O=c1c2cnn(C3CCOCC3)c2nc2n1CCCN2Cc1ccc(-c2ccc(F)cn2)cc1` [Example 221], for which the IC50 is below 1000 nM.
Consider `O=c1c2cnn(C3CCOCC3)c2nc2n1CCCN2CCCC(F)(F)F` [Example 222], for which the IC50 was below 1000 nM.
`O=c1c2cnn(C3CCOCC3)c2nc2n1CCCN2CC1CCC(F)(F)CC1` [Example 223] came in with an IC50 below 1000 nM.
In turn, `CC(C)CCN1CCCn2c1nc1c(cnn1C1CCOCC1)c2=O` [Example 224] displayed an IC50 below 1000 nM.
`O=c1c2cnn(C3CCOCC3)c2nc2n1CCCN2CCCCC(F)(F)F` [Example 225] had an IC50 below 1000 nM.
